Here are results for 18 molecules from ChEMBL document CHEMBL4350986, “Triptolide: Medicinal chemistry, chemical biology and clinical progress” (Eur J Med Chem, 2019).

Data set [1] relates to MCF7. The experiment in a line: Cytotoxicity against human MCF7 cells assessed as decrease in cell viability after 72 hrs by MTT assay. The format is functional, cell-based. Conditions: MCF7, 72 h. On the technique in general: Tetrazolium dyes change colour on reduction, which living cells bring about.
Data set [2] deals with HL-60. The experiment in a line: Cytotoxicity against human HL60 cells assessed as decrease in cell viability by MTT assay. The format is functional, cell-based.
For a further data set, the system named is KB. The experiment in a line: Cytotoxicity against human KB cells assessed as decrease in cell viability by MTT assay. The class given is functional, cell-based.
Another data set deals with MKN-28. The experiment in a line: Cytotoxicity against human MKN28 cells assessed as decrease in cell viability after 72 hrs by MTT assay. The class given is functional, cell-based. Conditions: MKN-28, 72 h.
The subject of another data set is P388. The experiment in a line: Cytotoxicity against mouse P388 cells assessed as decrease in cell viability after 72 hrs by MTT assay. The format is functional, cell-based. Conditions: P388, 72 h.
In data set [3] the test system is HL-60. The experiment in a line: Cytotoxicity against human HL60 cells assessed as decrease in cell viability after 72 hrs by MTT assay. The format is functional, cell-based. The conditions noted are these: HL-60, 72 h.
In data set [4] the test system is HeLa. The experiment in a line: Cytotoxicity against human HeLa cells assessed as decrease in cell viability by MTT assay. The format is functional, cell-based.
Data set [5] relates to MCF7. The experiment in a line: Cytotoxicity against human MCF7 cells assessed as decrease in cell viability by MTT assay. The format is functional, cell-based.
In another data set the test system is A549. The experiment in a line: Cytotoxicity against human A549 cells assessed as decrease in cell viability after 72 hrs by MTT assay. The class given is functional, cell-based. The conditions noted are these: A549, 72 h.
Another data set concerns BGC-823. The experiment in a line: Cytotoxicity against human BGC823 cells assessed as decrease in cell viability by MTT assay. The class given is functional, cell-based.
The nature of data set [6]: Toxicity in rat ear inflammation model. Conditions: in vivo.
Data set [7] relates to HL-60. The experiment in a line: Cytotoxicity against human HL60 cells assessed as decrease in cell viability. The format is functional, cell-based.
A further data set deals with Jurkat. The experiment in a line: Cytotoxicity against human Jurkat cells assessed as decrease in cell viability. The class given is functional, cell-based.
The next data set has as its system HCT-116. The experiment in a line: Cytotoxicity against human HCT116 cells assessed as decrease in cell viability. The format is functional, cell-based.
For the next data set, the system named is NIH3T3. The experiment in a line: Cytotoxicity against mouse NIH/3T3 cells assessed as decrease in cell viability. The format is functional, cell-based.
The nature of data set [8]: Cytotoxicity against human SK-MEL-8 cells assessed as decrease in cell viability. The format is functional, cell-based.
Data set [9] in a line: Cytotoxicity against human Re-01 cells assessed as decrease in cell viability. The class given is functional, cell-based.
The nature of data set [10]: Cytotoxicity against human Col-06 cells assessed as decrease in cell viability. The class given is functional, cell-based.
Data set [11] is described as follows: Cytotoxicity against human Bre01 cells assessed as decrease in cell viability. The class given is functional, cell-based.
Data set [12] is described as follows: Cytotoxicity against human OVCAR1 cells assessed as decrease in cell viability. The format is functional, cell-based.
The subject of data set [13] is HeLa. The experiment in a line: Cytotoxicity against human HeLa cells assessed as decrease in cell viability. The class given is functional, cell-based.
Another data set deals with MDCK. The experiment in a line: Cytotoxicity against MDCK cells assessed as decrease in cell viability. The class given is functional, cell-based. Conditions: Canis lupus familiaris.
Data set [14] is described as follows: Half life of the compound. The format is physicochemical.

Converted amounts (≈) assume the structure as drawn.

For the molecule `CC(C)[C@]12O[C@H]1[C@@H]1O[C@]13[C@]1(O[C@H]1C[C@@]1(O)C4=C(CC[C@]31C)C(=O)OC4)[C@@H]2O`, the IC50 (usually the concentration that gives 50% inhibition) is 0.04 to 0.2 nM with MCF7 [1]; 470 nM with HL-60 [2]; 300 nM with KB; 0.04 to 0.2 nM in the data set with MKN-28; 0.04 to 0.2 nM with P388; 0.04 to 0.2 nM with HL-60 [3]. Also, the IC50 in the data set on HeLa [4] was 340 nM; in the data set on MCF7 [5], 1050 nM; in the data set on A549 it was 0.04 to 0.2 nM; in the data set on BGC-823, 1500 nM.

Consider `CC(C)[C@]1(O)[C@H](O)[C@@H]2O[C@]23[C@]2(O[C@H]2C[C@H]2C4=C(CC[C@@]23C)C(=O)OC4)[C@@H]1O`, for which the LD50 (in general, the dose at which mortality reaches 50%) in [6] was more than 500 mg/kg.

Regarding `CC(C)C1=C[C@@H]2O[C@@]23[C@@]2(C)CCC4=C(COC4=O)[C@@H]2C[C@@H]2O[C@@]23C1=O`, the IC50 in the data set with HL-60 [7] turned out to be 16000 nM; with Jurkat, 31000 nM.

As to `C[C@]12CCC3=C(COC3=O)[C@@H]1C[C@@H]1O[C@@]13C(=O)[C@@]1(CCCC(=O)O)O[C@H]1[C@@H]1O[C@]123`, the 50% inhibitory concentration (IC50) in the data set with HCT-116 turned out to be 560 nM.

Take `C[C@@H]([C@@H]1CO1)[C@]12O[C@H]1[C@@H]1O[C@@]13[C@@]1(C)CCC4=C(COC4=O)[C@@H]1C[C@@H]1O[C@@]13C2=O`: the IC50 in the data set on NIH3T3 amounted to 40 nM.

Consider `C[C@]12CCC3=C(COC3=O)[C@@H]1C[C@@H]1O[C@@]13[C@H](O)[C@@]1(CCO)O[C@H]1[C@@H]1O[C@@]132`, for which the IC50 in the data set with HCT-116 amounted to 74.7 nM.

As for `CC(C)[C@]12O[C@H]1[C@@H]1O[C@]13[C@]1(O[C@H]1C[C@H]1C4=C(CC[C@@]13C)C(=O)O[C@H]4O)[C@@H]2O`, the IC50 stood at 52600 nM in the data set with HL-60 [2] and 46500 nM in the data set with KB.

Turning to `CC(C)[C@]12O[C@H]1[C@@H]1O[C@@]13[C@@]1(C)[C@H](O)CC4=C(COC4=O)[C@@H]1C[C@@H]1O[C@@]13[C@@H]2O`, the concentration for half-maximal inhibition (IC50) in the data set on HL-60 [2] turned out to be 70 nM; in the data set with KB, 120 nM; in the data set with HeLa [4], 320 nM; in the data set with MCF7 [5], 870 nM; in the data set on BGC-823, 7650 nM.

Turning to `C[C@]12CCC3=C(COC3=O)[C@@H]1C[C@@H]1O[C@@]13C(=O)[C@H]1O[C@H]1[C@@H]1O[C@]123`, the IC50 in the data set on HCT-116 amounted to 537 nM.

Consider `CC(C)[C@]12O[C@H]1[C@@H]1O[C@]13[C@]1(O[C@H]1C[C@H]1C4=C(CC[C@@]13C)C(=O)OC4)[C@@H]2NC=O`, for which, in the data set with HCT-116, the half-maximal inhibitory concentration (IC50) came out at 354 nM.

For `C[C@]12CCC3=C(COC3=O)[C@@H]1C[C@@H]1O[C@@]13[C@@H](O)[C@@]1(CCO)O[C@H]1[C@@H]1O[C@@]132`, the IC50 in the data set on HCT-116 is 70.7 nM.

Regarding `CC(C)[C@]1(O)[C@H](N=C=S)[C@@H]2O[C@]23[C@]2(O[C@H]2C[C@H]2C4=C(CC[C@@]23C)C(=O)OC4)[C@@H]1O`, the IC50 amounted to 0.09 µg/mL (≈ 0.215 µM) in [8]; 0.06 µg/mL (≈ 0.143 µM) in data set [9]; 0.03 µg/mL (≈ 0.0715 µM) in data set [10]; 0.055 µg/mL (≈ 0.131 µM) in data set [11]; 0.02 µg/mL (≈ 0.0477 µM) in data set [12].

Take `CC[C@@H](CO)[C@]12O[C@H]1[C@@H]1O[C@@]13[C@@]1(C)CCC4=C(COC4=O)[C@@H]1C[C@@H]1O[C@@]13C2=O`: the IC50 in the data set on HeLa [13] is 2 nM; in the data set on NIH3T3, 10 nM; in the data set with MDCK, 270 nM; in the data set on Jurkat it was less than 40 nM.

For the molecule `CCCNC(=O)OCCC[C@]12O[C@H]1[C@@H]1O[C@@]13[C@@]1(C)CCC4=C(COC4=O)[C@@H]1C[C@@H]1O[C@@]13C2=O`, the IC50 in the data set on HCT-116 came out at 8.4 nM.

With `CC(C)C1=C[C@H]2O[C@]23[C@@]2(C)CCC4=C(COC4=O)[C@@H]2C[C@@H]2O[C@@]23C1=O`, the IC50 in the data set with HL-60 [7] and in the data set on Jurkat was 16000 nM throughout.

Take `CC(C)[C@]12O[C@H]1[C@@H]1O[C@]13[C@]1(O[C@H]1C[C@H]1C4=C(CC[C@@]13C)C(=O)OC4)[C@@H]2N`: the IC50 in the data set on HCT-116 worked out at 772 nM.

`CC(C)[C@]12O[C@H]1[C@@H]1O[C@]13[C@]1(O[C@H]1C[C@H]1C4=C(CC[C@@]13C)C(=O)OC4)[C@@H]2OCOP(=O)([O-])[O-].[Na+].[Na+]` [MINNELIDE]: the half-life (usually the time in which the quantity being followed falls by half) in data set [14] turned out to be 2 min.

`CC(C)[C@]12O[C@H]1[C@@H]1O[C@]13[C@]1(O[C@H]1C[C@H]1C4=C(CC[C@@]13C)C(=O)OC4)[C@@H]2O` [TRIPTOLIDE]: the 50% inhibitory concentration (IC50) in the data set on HeLa [13] amounted to 87 nM; in data set [8] it was 0.02 µg/mL (≈ 0.0555 µM); in [9], 0.03 µg/mL (≈ 0.0832 µM); in data set [10], 0.02 µg/mL (≈ 0.0555 µM); with HCT-116, 4.7 nM; in data set [11], 0.04 µg/mL (≈ 0.111 µM). Besides, the IC50 was 50 nM with NIH3T3, 1200 nM in the data set on MDCK, 0.006 µg/mL (≈ 0.0166 µM) in data set [12] and 140 nM in the data set on Jurkat.
